Measured values published in the METLIN SMRT retention time set (Domingo-Almenara et al. 2019).

Experiment: gradient 5% acetonitrile 3 min, to 50% in 2 min, to 85% in 15 min, held 3 min, 100 µL/min
Conditions: column: Zorbax Extend-C18 2.1 x 50 mm; eluents: water / acetonitrile, 0.1% formic acid
In short: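 The system's dead and dwell volumes were 40 μL and 900 μL, with a Zorbax Extend-C18 column (2.1 × 50 mm, 1.8 μm) run at 100 μL/min in water and acetonitrile containing 0.1% formic acid each. Pure standards were analyzed in mixtures of ~100 molecules by HPLC–quadrupole time-of-flight mass spectrometry in positive and negative ionization mode. Retention time was assigned from computationally picked, manually inspected adduct peaks.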

Structure (SMILES) | RP-LC retention time
COc1cc2c(cc1OC)C(/C=C/c1ccco1)=NCC2 | 693 s
Cc1ccc(-n2ccc(=O)c(-c3nc(-c4cccc(Cl)c4)no3)n2)cc1 | 1030 s
COc1ccc(S(=O)(=O)N2CCC(c3nc(C(=O)N4CCCC4)c(C)o3)CC2)cc1 | 871 s
CC(C)NC(=O)CSc1ccc(N2CCN(c3ccccc3)CC2)nn1 | 708 s
O=C(Cn1nc2c(c1NC(=O)Cc1noc3ccccc13)CSC2)NCC1CCCO1 (centres undefined) | 853 s
COC(=O)c1c(-c2ccc(F)cc2)noc1NCCc1cccs1 | 1090 s
Cc1sc(NC(=O)C(C)(C)C)nc1-c1ccc2c(c1)NC(=O)C(C)O2 (centres undefined) | 908 s
O=C(c1ccco1)N1CCC(Oc2nc3ccc(F)cc3s2)CC1 | 902 s
CCOCc1nc(C2CCCN2S(=O)(=O)c2cccc3nsnc23)no1 (centres undefined) | 836 s
COc1ccc(OC)c(-c2[nH]ncc2CN2CC(F)(F)C[C@H]2CN2CCCCC2)c1 | 632 s
CCOC(=O)c1c(S(=O)(=O)N2CCC(C(=O)Nc3ccc(Cl)cc3)CC2)c(C)n(CC)c1C | 957 s
COc1ccc(Cl)cc1NC(=O)N1CCCC1c1nc(-c2ccccc2)no1 (centres undefined) | 1140 s
CCN1CCN(C(=O)c2cn(-c3ccc(-c4nc(C(C)(C)C)no4)cn3)cn2)CC1 | 653 s
Cc1ccc(CNC(=O)C2CCCN(c3ncnc4c3oc3ccccc34)C2)cc1 (centres undefined) | 807 s
Cc1ccc(NC(=O)C2CCc3sc(C(=O)N4CCOCC4)cc3C2)cc1 (centres undefined) | 842 s
CCOC(=O)C1CCN(C(=O)c2nc(N3CCCCC3)c3c(C)cc(C)nc3n2)CC1 | 595 s
O=C(NCCCN1CCOCC1)C1CCCN(c2cnc3nccnc3c2)C1 (centres undefined) | 565 s
CCOc1ccc(-c2nc(Cn3ccn4nc(-c5ccc(OC)cc5)cc4c3=O)c(C)o2)cc1OC | 1030 s
CC(=O)n1nc(-c2ccc(C)c(C)c2)nc1N | 813 s
CN(C)c1ccc(CNC(=O)Cn2cnc3nc4c(cc3c2=O)CCCC4)cc1 | 586 s
Cc1noc(C)c1S(=O)(=O)N1C[C@@H](F)C[C@H]1C(=O)N1CCCCC1 | 765 s
CC1(C(=O)NCc2ccccc2)CCCN(C(=O)NCc2ccccc2)C1 (centres undefined) | 810 s
Cc1ccc(-n2nnnc2CN2CCN(C(=O)CSc3nnnn3C)CC2)cc1 | 664 s

Structure (SMILES) | RP-LC retention time
Cc1ccc(CN2CC(=O)N(c3cccc(C)c3)[C@@H]3CS(=O)(=O)C[C@@H]32)cc1 | 855 s
Cc1ccc(-c2ccc(=O)n(CCc3nc(-c4ccc(F)cc4)no3)n2)cc1C | 1100 s
COc1ccc(C(=O)N2C[C@@H](Oc3cccnc3)C[C@H]2C(=O)NC2CC2)cn1 | 562 s
COc1cccc(NC(=O)c2cnc3c(c2)c(=O)n(C)c(=O)n3C)c1 | 795 s
Cc1noc(-c2ccc(=O)n(C(C)C(=O)NCc3cccs3)c2)n1 (centres undefined) | 646 s
CCN(Cc1ccc(C)cc1)Cc1cc(=O)n2ccc(C)cc2n1 | 628 s
Cc1c(NS(C)(=O)=O)cccc1-c1nc2cccnc2s1 | 682 s
Cc1ccc(Cl)cc1NC(=O)CN(C)S(=O)(=O)c1c[nH]c(C(=O)N2CCCC2)c1 | 818 s
Cc1cc(C)c(-c2nnc(NC(=O)c3ccccc3Br)s2)c(C)c1 | 988 s
COc1ccccc1CNC(=O)c1cn2c(n1)CCCC2 | 589 s
CNC(=O)N1CCC(C2CCN(C(=O)CCCC(=O)O)C2)CC1 (centres undefined) | 572 s
CCN1CCCn2cc(S(=O)(=O)Nc3cc(OC)ccc3OC)cc2C1=O | 704 s
CCCCc1ccc(NC(=O)CSc2cc(N3CCC(C(=O)NCC)CC3)ncn2)cc1 | 871 s
Cc1ccc(N2CC(c3nc(-c4cccc(-c5ccnn5C)c4)no3)CC2=O)cc1 (centres undefined) | 605 s
CN1C(=O)c2cc(C(=O)NC3CCCCC3)nn2CC1(C)C(=O)NCc1ccc(F)cc1 (centres undefined) | 776 s
Cc1ccc(C(=O)N2C[C@@H]3C[C@H]2C[C@@H]3NS(=O)(=O)c2cccs2)cc1F | 827 s
CN(C)S(=O)(=O)c1ccc(-c2nnc(C(=O)N3CCC4(CC3)OCCO4)o2)cc1 | 746 s
CN1C(=O)c2cc(C(=O)N3CCN(c4ccccc4F)CC3)nn2CC1(C)C(=O)NC1CCCCC1 (centres undefined) | 834 s
COc1ccc(OC)c(CNC(=O)c2c(O)c3cccnc3[nH]c2=O)c1 | 921 s
O=C(c1cn(-c2cc(Nc3ccccc3)ncn2)cn1)N1CCOCC1 | 676 s
COc1cccc(-n2cc(C(=O)Oc3cccnc3)c3ccccc3c2=O)c1 | 926 s
O=C(Cn1cccc(-c2nc(-c3ccc(F)cc3)no2)c1=O)Nc1ccc(Cl)cc1 | 950 s
COCCC(=O)N1CC(F)(F)C[C@H]1c1nc(C2CC2)no1 | 713 s

Structure (SMILES) | RP-LC retention time
O=C(COc1ccccc1F)NCC1CCN(S(=O)(=O)C2CC2)CC1 | 712 s
COc1ccc(Cl)cc1S(=O)(=O)NC1CCCN(c2ccc(=O)[nH]n2)C1 (centres undefined) | 698 s
COC(=O)c1cc(S(=O)(=O)N2CCCC2C(=O)Nc2cccc3c2CCCC3)cn1C (centres undefined) | 1020 s
CCNC(=O)c1cc(C)nc2ccc(Cl)cc12 | 649 s
COc1ccc(Cn2cccc(S(=O)(=O)N3CCCC3)c2=O)cc1F | 843 s
COC(=O)c1ccc2c(=O)n(-c3ccc(OC)cc3)c(N3CCSC3)nc2c1 | 1050 s
CSc1cccc(NC(=O)N2CCc3c(c(C(=O)N4CCCC4)nn3C)C2)c1 | 971 s
Cc1scc2nc(C(=O)N3CCN(C4CCCC4)CC3)nc(N3CCCC3)c12 | 550 s
COC(=O)CCC(=O)Nc1nc(-c2ccccc2)cs1 | 840 s
COc1ccc2[nH]cc(CCNC(=O)c3cnn(-c4ccc(Cl)cc4)c3C3CCNCC3)c2c1 | 694 s
CN(C)c1cc(N2CCCC(NC(=O)Cc3ccccc3)C2)ncn1 (centres undefined) | 795 s
Clc1ccc(OCc2nc(-c3cccc(-c4ccn[nH]4)c3)no2)cc1 | 1010 s
CN(C)C(=O)c1ccc2c(c1)N(CC(=O)Nc1ccccn1)C(=O)C1CCCCN21 (centres undefined) | 680 s
COC1CCN(CC2CCCCCN2C(=O)c2ccoc2)CC1 (centres undefined) | 596 s
CCc1cccc(NC(=O)Cn2nc(N3CCSCC3)c3ccccc3c2=O)c1 | 940 s
COC(=O)C1=CN(c2ccc(OC)c(Cl)c2)c2ccccc2S1(=O)=O | 856 s
COc1ccc(CNc2nc(NCc3ccc(OC)cc3)c3ncn(C(C)C)c3n2)cc1 | 809 s
O=C(CCn1ccnc1)N1CCC2(CCC(=O)N(CC3CC3)CC2)CC1 | 577 s
CCC(CC)C(=O)Nc1c(-c2ccc(OC)cc2)nc2cc(C)ccn12 | 672 s
COc1ccc(N2C(=O)C3N=NN(Cc4nc(-c5cccc(C)c5)no4)C3C2=O)cc1 (centres undefined) | 993 s
Cn1cc(CC(=O)NCc2cc(-c3ccc4c(c3)OCO4)on2)c2ccccc21 | 813 s
CCn1cnc(S(=O)(=O)N2CCC(C(=O)N3CCN(c4cccc(C(F)(F)F)c4)CC3)CC2)c1 | 868 s
Cc1ccc(CNC(=O)c2ccc(-c3cncnc3)nc2)cc1C | 782 s

Structure (SMILES) | RP-LC retention time
CC(C)OCCCNC(=O)C1Cn2cccc2C(=O)N1 (centres undefined) | 602 s
C=CCNC(=O)C1CCN(C(=O)Nc2ccc(NC(=O)Nc3cccc(F)c3)cc2)CC1 | 706 s
Cc1cc(=O)n(CC(=O)Nc2cccc(C#N)c2)c(N2CCc3ccccc3C2)n1 | 772 s
Cc1csc(-c2ccc(CNC(=O)c3cc(F)cc(F)c3)cc2)n1 | 939 s
Cc1ccc(N2CCC(NS(=O)(=O)c3ccccc3F)C2=O)cc1 (centres undefined) | 894 s
COc1cccc(-c2noc(Cn3c(=O)n(-c4ccc(F)cc4)c(=O)c4sccc43)n2)c1 | 952 s
COCCN1C(=O)[C@H]2CN(Cc3ccccc3)C[C@H]2C1=O | 572 s
CCc1cc(C(=O)NC2CC2)nc2cc(-c3cccs3)nn12 | 1010 s
CCc1c2c(nc3sc(C(=O)NCC4CCCO4)c(N)c13)CC(C)(C)CC2=O (centres undefined) | 836 s
O=C(CCc1nc(-c2ccc(N3CCCCCC3)cc2)no1)N1CCCC1 | 1080 s
O=C(Cc1cn2cc(Br)ccc2n1)N1CCc2ccccc2C1 | 635 s
COc1ccc(-c2c(C)noc2NC(C)=O)cc1S(=O)(=O)Nc1cc(Cl)ccc1C | 792 s
CCOc1nc2ccccc2nc1N1CCCC(C(=O)N2CCN(c3ccccc3OC)CC2)C1 (centres undefined) | 1250 s
COC(=O)c1ccc(NC(=O)N2CCC3(CC2)N(CC2CC2)C(=O)CS3=O)cc1 (centres undefined) | 674 s
CC(C)(C)c1noc(-c2ccc(-n3cnc(C(=O)N4CCCCC4)c3)nc2)n1 | 742 s
O=C(NC1CCCCCC1)C1CC(=O)N(CCc2c[nH]c3ccc(F)cc23)C1 (centres undefined) | 812 s
O=C(CN1CCc2[nH]c3c(F)c(Cl)ccc3c(=O)c2C1)NCc1ccc2c(c1)OCO2 | 661 s
CCS(=O)(=O)N1CCCc2cc(C(=O)Nc3ccc4c(c3)OCCO4)ccc21 | 858 s
Cn1c(C(=O)N2CCN(c3ccccn3)CC2)cc2c(=O)oc3ccccc3c21 | 607 s
O=C(CSc1nnc2c3sc(N4CCCC4)nc3ncn12)Nc1ccc(F)cc1Cl | 869 s
